Reference: paper PMC6201930 (PLoS ONE, 2018)
“And” between values parts separate entries of the source, which are not always exact repeats. Equal values may be shown once. “Also recorded” adds a separate entry of the source.

Assays:
[1] = tested on: Male Sprague Dawley rats; test: Fourteen day safety study in rats; assay type: in vivo; details: for Animals completed study: 6 rats per group; for hematology: numbers of red and white blood cells or platelets vs vehicle: 14 days dosing, all dose groups; for accumulation over time (toxicokinetics): Day 1 and Day 14; for histopathology of liver and bone marrow: end of the 14 day dosing period; for urine lipocalin / urine albumin, clusterin, cystatin C and osteopontin: highest dose groups: G418 20 mg/kg, gentamicin X2 40 mg/kg; for urine albumin, clusterin, cystatin C and osteopontin: normalized to urinary creatinine
Procedure: To evaluate in vivo safety we administered the compounds daily to rats (n = 6 rats per dose group) by subcutaneous injection for 14 days.
Male Sprague Dawley rats were purchased from Charles River Laboratories, where 6 weeks old at time of study initiation. Rats were group-housed (3 rats per box) in solid bottom cages. Food and water were provided ad libitum. Rats were dosed daily by subcutaneous injection. […] Blood was collected for serum chemistry by retro-orbital bleeds on Day 7 and by terminal cardiac puncture on Day 14. For urine collection, rats were housed in metabolic cages for 6 hours. Toxicokinetics was evaluated on Day 1 and Day 14 (S4 Fig). Blood was obtained by retro-orbital bleeding at 0, 0.25, 0.75, 1.5, 4, 7, 24 hours post-dose. Rats were euthanized on Day 14, 24 hours after the last dose. Body weights were measured on Days 3, 6, 9, 12 and 14. Endpoints to evaluate kidney function included serum chemistry (BUN and creatinine; Day 7 and Day 14), urine biomarkers (albumin, clusterin, cystatin C, osteopontin, KIM1, and alpha GST; Day 6 and Day 9), hematology (Day 14) and histopathology. For histopathology, kidney, liver, and bone marrow were evaluated. Samples collected for histopathology were sectioned at 5 μm, stained with hematoxylin and eosin (H&E), and examined by a board certified veterinary pathologist. BUN, creatine and hematology parameters were measured using a HESKA veterinary system (Loveland, CO). Urine samples were assayed using MSD electrochemiluminescent immunoassay. Samples were analyzed in triplicate using a Sector Imager 6000 instrument (MSD, Rockville, Maryland). Kits used were the Rat Kidney Injury Panel 1 (albumin, Kim-1, NGAL/lipocalin-2, osteopontin), the Argutus Acute Kidney Injury Panel (α-GST, GSTYb1, RPA-1) and the Clusterin Test Kit (MSD), according to the manufacturer’s instructions. Urinary biomarker concentrations were normalized to urinary creatinine to account for differences in urine production and flow rates.

[2] = in vivo; details: zebrafish
Procedure: (§1) All neuromast cytotoxicity assays were done at Biobide–BBD Biophenix SL (Gipuzkoa, Spain). […] Compounds were tested at 5 doses. After 24 hours of exposure embryos were incubated in DASPEI (2-(4-(dimethylamino)styryl) -N-Ethylpyridinium Iodide) for neuromast staining. Images of each embryo were taken and neuromasts counted. A compound was classified as ototoxic when the number of neuromasts in the treated group was less than that in the untreated control group (One Way ANOVA, multiple comparisons vs. vehicle).

[3] = tested on: primary mouse myoblasts; test: Cytotoxicity in myoblasts; details: read-out: Myoblast CC50; individual determinations (S1 File)
[4] = Neuromast toxicity assay (DASPEI staining); details: zebrafish, zebrafish embryos 5 dpf, neuromasts (hair cells), other: embryos exposed to the drug in 24-well plates, zebrafish embryos 5 dpf
Procedure: as §1

[5] = 10 mg/kg daily s.c. 14 days, 6 kidneys examined
[6] = 20 mg/kg daily s.c. 14 days, kidneys examined: X2 6, G418 3
[7] = 40 mg/kg daily s.c. 14 days, 6 kidneys examined, listed as X2
[8] = 40 mg/kg daily s.c. 14 days, 6 kidneys examined, listed as gentamicin X2

| SMILES | Animals completed study ([1]; 10 mg/kg daily s.c. 14 days) | Kidneys: Mineralization (number of kidneys) [1, 5] | Kidneys: Pelvic dilation (number of kidneys) [1, 5] | Kidneys: Tubular necrosis (number of kidneys) [1, 5] | Animals completed study ([1]; 20 mg/kg daily s.c. 14 days) | Kidneys: Mineralization (number of kidneys) [1, 6] | hematology: numbers of red and white blood cells or platelets vs vehicle [1] | accumulation over time (toxicokinetics) [1] | histopathology of liver and bone marrow [1] | urine lipocalin [1] | urine albumin, clusterin, cystatin C and osteopontin [1] | also measured |
| --- | --- | --- | --- | --- | --- | --- | --- | --- | --- | --- | --- | --- |
| CN[C@@H]1[C@@H](O)[C@@H](O[C@@H]2[C@@H](O)[C@H](O[C@H]3O[C@H]([C@@H](C)O)[C@@H](O)[C@H](O)[C@H]3N)[C@@H](N)C[C@H]2N)OC[C@]1(C)O [G418, reference compound] | 6 | 1 | 2 | 4 | 3 | 0 | no obvious differences across groups | no accumulation | No histopathology findings | not affected | increased | rats euthanized or found dead ([1]; 20 mg/kg daily s.c., 14 days, 6 rats): three rats were either euthanized or found dead; creatinine and blood urea nitrogen (BUN) levels ([1]; 20 mg/kg, Days 7 and 14, p<0.05 vs vehicle): significantly elevated; urine alpha-GST levels ([1]; G418 20 mg/kg compared to gentamicin X2 40 mg/kg): greatest decrease; CC50 ([2]; Neuromast (CC50), zebrafish embryos 5 dpf, 24 hours exposure, maximum of two measurements): 2800 ± 1200 nM; CC50 ([2]; Neuromast CC50, individual determinations (S1 File)): 1900 nM |
| CN[C@@H]1[C@@H](O)[C@@H](O[C@@H]2[C@@H](O)[C@H](O[C@H]3O[C@H](CO)[C@@H](O)[C@H](O)[C@H]3N)[C@@H](N)C[C@H]2N)OC[C@]1(C)O (stereo in doubt) [Gentamicin X2, gentamicin X2] | 6 | 0 | 0 | 2 | 6 | 0 | no change; also recorded: no obvious differences across groups | no accumulation | No histopathology findings | not affected | not increased | CC50 [3]: 614 µM and 402 µM and 481 µM and 324 µM and 1880 µM and 1300 µM; Kidneys: Pelvic dilation (number of kidneys) [1, 6]: 1; Kidneys: Tubular necrosis (number of kidneys) [1, 6]: 2; effect on body weight ([1]; 20 mg/kg daily s.c., 14 days): did not affect body weight; Animals completed study ([1]; 40 mg/kg daily s.c. 14 days): 6; Kidneys: Mineralization (number of kidneys) ([1]; 40 mg/kg daily s.c. 14 days, 6 kidneys examined): 0; Kidneys: Pelvic dilation (number of kidneys) [1, 7]: 4; Kidneys: Tubular necrosis (number of kidneys) [1, 7]: 4; Kidneys: Pelvic dilation (number of kidneys) [1, 8]: four of six kidneys; Kidneys: Tubular necrosis (number of kidneys) [1, 8]: four of six kidneys; effect on body weight ([1]; 40 mg/kg daily s.c., 14 days): only slightly reduced body weight; tolerability ([1]; all dose levels, 14 days daily s.c.): well-tolerated at all dose levels; rats found dead or euthanized ([1]; any of the three dose groups (10, 20, 40 mg/kg), 14 days): No rats were found dead or euthanized; CC50 at 24 h ([4]; Neuromast (CC50), 24 hours exposure, maximum of two measurements): 14 ± 7 µM; CC50 at 24 h ([4]; Neuromast CC50, AVERAGE (S1 File)): 13.9 µM |
